Columns and labels:
Format in all cases: in vivo
Conditions in all cases: Compound A n-Butyl Ester alone, 16 gae/ha
[1] = tested on: ECHCG (Echinochloa crusgalli (L.) Beauv., barnyardgrass); experiment: Example I postemergence foliar-applied mixtures, direct seeded rice weeds, greenhouse: ECHCG
Protocol: (§1) Seeds or nutlets of the desired test plant species were planted in a soil matrix prepared by mixing a loam or sandy loam soil (e.g., 28.6 percent silt, 18.8 percent clay, and 52.6 percent sand, with a pH of about 5.8 and an organic matter content of about 1.8 percent) and calcareous grit in an 80 to 20 ratio. The soil matrix was contained in plastic pots with a volume of 1 quart and a surface area of 83.6 square centimeters (cm^2). […] The plants were grown for 8-22 days in a greenhouse with an approximate 14 hr photoperiod which was maintained at about 29° C. during the day and 26° C. during the night. Nutrients (Peters Excel® 15-5-15 5-Ca 2-Mg and iron chelate) were applied in the irrigation solution as needed and water was added on a regular basis. Supplemental lighting was provided with overhead metal halide 1000-Watt lamps as necessary. The plants were employed for testing when they reached the first through fourth true leaf stage.
(§2) Treatments consisted of the acid or esters of 4-amino-3-chloro-5-fluoro-6-(4-chloro-2-fluoro-3-methoxy-phenyl)pyridine-2-carboxylic acid (Compound A), each formulated as an SC (suspension concentrate), and various herbicidal components alone and in combination. Forms of compound A were applied on an acid equivalent basis.
(§3) For treatments comprised of formulated compounds, measured amounts of compounds were placed individually in 25 mL glass vials and diluted in a volume of 1.25% (v/v) Agri-Dex® crop oil concentrated to obtain 12× stock solutions. […] Application solutions were prepared by adding an appropriate amount of each stock solution (e.g., 1 mL) and diluted to the appropriate final concentrations with the addition of 10 mL of an aqueous mixture of 1.25% (v/v) crop oil concentrate so that the final spray solutions contained 1.25+/−0.05% (v/v) crop oil concentrate.
(§4) All stock solutions and applications solutions were visually inspected for compound compatibility prior to application. Spray solutions were applied to the plant material with an overhead Mandel track sprayer equipped with a 8002E nozzles calibrated to deliver 187 L/ha over an application area of 0.503 m^2 at a spray height of 18 to 20 inches (46 to 50 cm) above average plant canopy height. Control plants were sprayed in the same manner with the solvent blank.
(§5) The treated plants and control plants were placed in a greenhouse as described above and watered by sub-irrigation to prevent wash-off of the test compounds. After approximately 3 weeks, the condition of the test plants as compared with that of the untreated plants was determined visually and scored on a scale of 0 to 100 percent where 0 corresponds to no injury or growth inhibition and 100 corresponds to complete kill.
(§6) Colby's equation was used to determine the herbicidal effects expected from the mixtures (Colby, S. R. 1967. Calculation of the synergistic and antagonistic response of herbicide combinations. Weeds 15:20-22.).

[2] = tested on: LEFCH (Leptochloa chinensis (L.) Nees, Chinese sprangletop); experiment: Example I postemergence foliar-applied mixtures, direct seeded rice weeds, greenhouse: LEFCH
Protocol: as §1, §2, §3, §4, §5, §6

[3] = tested on: IPOHE (Ipomoea hederacea Jacq., ivyleaf morningglory); experiment: Example I postemergence foliar-applied mixtures, direct seeded rice weeds, greenhouse: IPOHE
Protocol: as §1, §2, §3, §4, §5, §6

## CCCCOC(=O)c1nc(-c2ccc(Cl)c(OC)c2F)c(F)c(N)c1Cl [Compound A n-Butyl Ester]
[1]
  Visual Weed Control (%) - 20 DAA ECHCG Obs: 65%
[2]
  Visual Weed Control (%) - 20 DAA LEFCH Obs: 10%
[3]
  Visual Weed Control (%) - 20 DAA IPOHE Obs: 15%

— patent US20140031227A1, “HERBICIDAL COMPOSITIONS COMPRISING 4-AMINO-3-CHLORO-5-FLUORO-6-(4-CHLORO-2-FLUORO-3-METHOXYPHENYL) PYRIDINE-2-CARBOXYLIC ACID OR A DERIVATIVE THEREOF AND GLYPHOSATE OR GLUFOSINATE” (DOW AGROSCIENCES LLC, priority 2012, published 2014)
